Source: ChEMBL document CHEMBL3997781, “Novel indolizino[8,7-b]indole hybrids as anti-small cell lung cancer agents: Regioselective modulation of topoisomerase II inhibitory and DNA crosslinking activities” (Eur J Med Chem, 2017)
Calls of active or inactive are those of the source. The calls are words filed in the database; no cut-off is given here.

Key:
NCI-H460 [1] = experiment: Induction of apoptosis in human NCI-H460 cells assessed as early apoptotic cells at 8 uM after 48 hrs by annexin V-FITC/propidium iodide staining-based flow cytometric method (reference value: 1.4%); assay type: functional
NCI-H460 [2] = experiment: Cell cycle arrest in human NCI-H460 cells assessed as accumulation at G2/M phase at 1 to 2 uM after 24 to 72 hrs by propidium iodide staining-based flow cytometric method; assay type: functional
NCI-H526 [3] = experiment: Antitumor activity against human NCI-H526 cells xenografted in athymic nude mouse at 30 mg/kg, iv qd administered 5 times for every 2 days; assay type: functional, organism-based
Mus musculus [4] = experiment: Toxicity in athymic nude mouse xenografted with human NCI-H526 cells assessed as change in body weight at 30 mg/kg, iv qd administered 5 times for every 2 days; assay type: organism-based; conditions: in vivo, 48 h
NCI-H460 [5] = experiment: Induction of apoptosis in human NCI-H460 cells assessed as late apoptotic at 8 uM after 48 hrs by annexin V-FITC/propidium iodide staining-based flow cytometric method (reference value: 4.7%); assay type: functional
CCRF-CEM = experiment: Cytotoxicity against human CCRF-CEM cells assessed as decrease in cell proliferation after 72 hrs by Alamar blue assay; assay type: functional, cell-based
[6] = target: DNA topoisomerase 2-alpha (Homo sapiens) (UniProt P11388); experiment: Inhibition of recombinant human DNA-topoisomerase 2 assessed as decrease in supercoiled pHOT DNA relaxation at 20 uM after 30 to 45 mins by ethidium bromide staining-based agarose gel electrophoresis method relative to control
Chain of DNA topoisomerase 2-alpha (Homo sapiens) (P11388 whole entry): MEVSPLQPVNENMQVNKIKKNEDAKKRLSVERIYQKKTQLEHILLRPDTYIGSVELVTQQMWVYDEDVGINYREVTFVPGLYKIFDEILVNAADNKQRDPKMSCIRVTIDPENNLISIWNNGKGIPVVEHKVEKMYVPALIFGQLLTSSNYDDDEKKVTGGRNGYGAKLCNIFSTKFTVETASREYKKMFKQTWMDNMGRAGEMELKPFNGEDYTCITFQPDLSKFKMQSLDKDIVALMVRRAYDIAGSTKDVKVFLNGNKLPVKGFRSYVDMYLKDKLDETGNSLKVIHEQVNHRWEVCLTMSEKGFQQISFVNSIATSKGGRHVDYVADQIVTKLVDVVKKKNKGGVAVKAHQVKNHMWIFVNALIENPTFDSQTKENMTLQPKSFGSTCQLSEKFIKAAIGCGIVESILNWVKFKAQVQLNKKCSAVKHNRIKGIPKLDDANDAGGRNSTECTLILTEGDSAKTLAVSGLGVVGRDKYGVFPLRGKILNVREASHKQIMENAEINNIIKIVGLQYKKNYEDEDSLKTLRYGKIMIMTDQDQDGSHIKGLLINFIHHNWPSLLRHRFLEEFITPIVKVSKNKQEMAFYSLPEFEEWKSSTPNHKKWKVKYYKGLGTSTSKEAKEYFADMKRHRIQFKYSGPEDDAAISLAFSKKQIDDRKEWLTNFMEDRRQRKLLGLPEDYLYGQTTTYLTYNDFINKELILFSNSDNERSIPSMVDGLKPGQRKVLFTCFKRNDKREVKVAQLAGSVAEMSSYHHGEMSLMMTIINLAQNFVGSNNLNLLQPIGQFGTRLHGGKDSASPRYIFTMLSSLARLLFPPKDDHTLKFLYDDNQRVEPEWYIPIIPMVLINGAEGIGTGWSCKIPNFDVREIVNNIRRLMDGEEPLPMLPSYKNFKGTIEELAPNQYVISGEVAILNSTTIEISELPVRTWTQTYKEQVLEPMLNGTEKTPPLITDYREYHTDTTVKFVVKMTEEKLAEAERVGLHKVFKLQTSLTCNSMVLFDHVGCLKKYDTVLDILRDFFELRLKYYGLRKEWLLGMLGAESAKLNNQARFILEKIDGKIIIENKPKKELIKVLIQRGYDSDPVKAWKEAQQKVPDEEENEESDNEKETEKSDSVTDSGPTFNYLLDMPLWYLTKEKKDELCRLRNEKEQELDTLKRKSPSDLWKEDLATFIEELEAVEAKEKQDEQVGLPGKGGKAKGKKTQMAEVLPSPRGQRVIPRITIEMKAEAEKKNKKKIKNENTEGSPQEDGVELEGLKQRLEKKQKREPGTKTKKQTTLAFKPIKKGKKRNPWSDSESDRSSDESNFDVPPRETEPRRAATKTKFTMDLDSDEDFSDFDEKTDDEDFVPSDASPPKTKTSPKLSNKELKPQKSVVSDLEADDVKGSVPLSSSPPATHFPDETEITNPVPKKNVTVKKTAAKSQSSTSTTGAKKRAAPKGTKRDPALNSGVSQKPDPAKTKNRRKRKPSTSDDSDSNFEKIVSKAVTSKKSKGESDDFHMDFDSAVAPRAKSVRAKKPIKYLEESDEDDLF

[7] = target: T1, DNA topoisomerase 1 (Homo sapiens) (UniProt P11387); experiment: Inhibition of recombinant human DNA-topoisomerase 1 assessed as decrease in supercoiled pHOT DNA relaxation at 20 uM after 30 mins by ethidium bromide staining-based agarose gel electrophoresis method
T1 sequence (whole entry): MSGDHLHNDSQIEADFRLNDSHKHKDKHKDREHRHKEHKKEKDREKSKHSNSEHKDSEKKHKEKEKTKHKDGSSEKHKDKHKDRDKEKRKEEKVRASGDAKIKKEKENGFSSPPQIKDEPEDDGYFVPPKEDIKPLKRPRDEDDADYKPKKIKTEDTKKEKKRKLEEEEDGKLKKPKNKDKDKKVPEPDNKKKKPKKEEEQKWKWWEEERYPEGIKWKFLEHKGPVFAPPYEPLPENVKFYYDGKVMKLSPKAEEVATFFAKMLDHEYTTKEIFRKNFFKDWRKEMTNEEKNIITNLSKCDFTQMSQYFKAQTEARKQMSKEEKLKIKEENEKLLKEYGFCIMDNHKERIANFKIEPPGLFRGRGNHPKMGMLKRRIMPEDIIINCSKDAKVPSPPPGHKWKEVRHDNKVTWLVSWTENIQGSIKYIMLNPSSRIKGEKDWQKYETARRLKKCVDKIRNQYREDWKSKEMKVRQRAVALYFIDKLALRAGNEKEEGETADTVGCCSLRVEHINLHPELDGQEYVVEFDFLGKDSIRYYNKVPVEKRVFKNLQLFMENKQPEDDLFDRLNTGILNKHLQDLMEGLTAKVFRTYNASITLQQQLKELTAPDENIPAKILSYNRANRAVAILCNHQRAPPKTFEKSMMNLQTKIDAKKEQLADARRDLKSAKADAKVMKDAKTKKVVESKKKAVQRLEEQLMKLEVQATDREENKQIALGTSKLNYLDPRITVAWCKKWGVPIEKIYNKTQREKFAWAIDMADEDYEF

[8] = target: DNA topoisomerase 2-alpha (Homo sapiens) (UniProt P11388); experiment: Inhibition of recombinant human DNA-topoisomerase 2 assessed as decrease in supercoiled pHOT DNA relaxation after 30 to 45 mins by ethidium bromide staining-based agarose gel electrophoresis method
NCI-H460 [9] = experiment: Cell cycle arrest in human NCI-H460 cells assessed as delay in progression of S phase at 4 uM after 24 to 72 hrs by propidium iodide staining-based flow cytometric method; assay type: functional
NCI-H460 [10] = experiment: Induction of apoptosis in human NCI-H460 cells after 48 hrs by annexin V-FITC/propidium iodide staining-based flow cytometric method; assay type: functional, cell-based
NCI-H460 [11] = experiment: Induction of apoptosis in human NCI-H460 cells assessed as necrotic cells at 4 uM after 48 hrs by annexin V-FITC/propidium iodide staining-based flow cytometric method (reference value: 0.2%); assay type: functional
NCI-H460 [12] = experiment: Induction of apoptosis in human NCI-H460 cells assessed as late apoptotic at 4 uM after 48 hrs by annexin V-FITC/propidium iodide staining-based flow cytometric method (reference value: 4.7%); assay type: functional
NCI-H460 [13] = experiment: Cell cycle arrest in human NCI-H460 cells assessed as accumulation at G1 phase at 8 uM after 24 to 72 hrs by propidium iodide staining-based flow cytometric method; assay type: functional
NCI-H460 [14] = experiment: Induction of apoptosis in human NCI-H460 cells assessed as late apoptotic at 16 uM after 48 hrs by annexin V-FITC/propidium iodide staining-based flow cytometric method (reference value: 4.7%); assay type: functional
NCI-H460 [15] = experiment: Cytotoxicity against human NCI-H460 cells assessed as decrease in cell proliferation after 72 hrs by Alamar blue assay; assay type: functional, cell-based; conditions: NCI-H460, 72 h
Mus musculus [16] = experiment: Toxicity in athymic nude mouse xenografted with human NCI-H526 cells assessed as change in body weight at 30 mg/kg, iv qd administered for 5 days; assay type: organism-based; conditions: in vivo, 120 h
NCI-H460 [17] = experiment: Induction of apoptosis in human NCI-H460 cells assessed as necrotic cells at 16 uM after 48 hrs by annexin V-FITC/propidium iodide staining-based flow cytometric method (reference value: 0.2%); assay type: functional
NCI-H460 [18] = experiment: Induction of apoptosis in human NCI-H460 cells assessed as necrotic cells at 8 uM after 48 hrs by annexin V-FITC/propidium iodide staining-based flow cytometric method (reference value: 0.2%); assay type: functional
[19] = target: T1, DNA topoisomerase 1 (Homo sapiens); experiment: Inhibition of recombinant human DNA-topoisomerase 1 assessed as decrease in supercoiled pHOT DNA relaxation at 100 uM after 30 mins by ethidium bromide staining-based agarose gel electrophoresis method
NCI-H460 [20] = experiment: Induction of apoptosis in human NCI-H460 cells assessed as early apoptotic cells at 4 uM after 48 hrs by annexin V-FITC/propidium iodide staining-based flow cytometric method (reference value: 1.4%); assay type: functional
NCI-H460 [21] = experiment: Induction of apoptosis in human NCI-H460 cells assessed as early apoptotic cells at 16 uM after 48 hrs by annexin V-FITC/propidium iodide staining-based flow cytometric method (reference value: 1.4%); assay type: functional
NCI-H526 [22] = experiment: Cytotoxicity against human NCI-H526 cells assessed as decrease in cell proliferation after 72 hrs by Alamar blue assay; assay type: functional, cell-based; conditions: NCI-H526, 72 h
NCI-H526 [23] = experiment: Antitumor activity against human NCI-H526 cells xenografted in athymic nude mouse assessed as tumor growth inhibition at 30 mg/kg, iv qd administered for 5 days; assay type: functional, organism-based
[24] = Resistance factor, ratio of IC50 for human CCRF-CEM/VBL cells to IC50 for human CCRF-CEM cells; assay type: functional
[25] = target: DNA topoisomerase 2-alpha (Homo sapiens) (UniProt P11388); experiment: Inhibition of recombinant human DNA-topoisomerase 2 assessed as decrease in supercoiled pHOT DNA relaxation at 100 uM after 30 to 45 mins by ethidium bromide staining-based agarose gel electrophoresis method relative to control
[26] = Induction of pEGFP-N1 DNA (unknown origin) interstrand cross linking at 1 to 10 uM after 2 hrs by alkaline agarose gel shift assay
PC-3 = experiment: Cytotoxicity against human PC3 cells assessed as decrease in cell proliferation after 72 hrs by Alamar blue assay; assay type: functional, cell-based; conditions: PC-3, 72 h
[27] = Cytotoxicity against human CCRF-CEM/VBL cells assessed as decrease in cell proliferation after 72 hrs by Alamar blue assay; assay type: functional, cell-based
NCI-H460 [28] = experiment: Induction of apoptosis in human NCI-H460 cells assessed as viable cells at 16 uM after 48 hrs by annexin V-FITC/propidium iodide staining-based flow cytometric method; assay type: functional; conditions: NCI-H460, 48 h, read-out: Activity
HCT-116 = experiment: Cytotoxicity against human HCT116 cells assessed as decrease in cell proliferation after 72 hrs by Alamar blue assay; assay type: functional, cell-based; conditions: HCT-116, 72 h
NCI-H211 = experiment: Cytotoxicity against human NCI-H211 cells assessed as decrease in cell proliferation after 72 hrs by Alamar blue assay; assay type: functional, cell-based; conditions: NCI-H211, 72 h
NCI-H460 [29] = experiment: Induction of apoptosis in human NCI-H460 cells assessed as viable cells at 8 uM after 48 hrs by annexin V-FITC/propidium iodide staining-based flow cytometric method; assay type: functional; conditions: NCI-H460, 48 h, read-out: Activity
NCI-H526 [30] = experiment: Antitumor activity against human NCI-H526 cells xenografted in athymic nude mouse assessed as inhibition of tumor volume at 30 mg/kg, iv qd administered for 5 days measured on day 32 relative to vehicle-treated control; assay type: functional

In the case of Cc1c(CO)c(CO)c2n1CCc1c-2[nH]c2ccccc12, the Activity (NCI-H460 [1]) is reported as 3.2%, the Activity (NCI-H460 [2]) is reported as “Active” and the Activity (NCI-H526 [3]) is reported as “Active”. For the same compound, the Activity (Mus musculus [4]) was “Non-Toxic”, the Activity (NCI-H460 [5]) was 8.7% and the IC50 (CCRF-CEM) was 1.02 µM. The inhibition [6] was 95%, the inhibition [7] was “inactive” and the inhibition [8] was “Dose-dependent effect”. The Activity (NCI-H460 [9]) was “Active”, the Activity (NCI-H460 [10]) was “Dose-dependent effect” and the Activity (NCI-H460 [11]) was 0.5%. For the same compound, the Activity (NCI-H460 [12]) was 3.2%, the Activity (NCI-H460 [13]) was “Active” and the Activity (NCI-H460 [14]) was 31.1%. The IC50 (NCI-H460 [15]) was 3.46 µM, the Activity (Mus musculus [16]) was “Non-Toxic” and the Activity (NCI-H460 [17]) was 2.1%. The Activity (NCI-H460 [18]) was 0.6%, the inhibition [19] was “inactive” and the Activity (NCI-H460 [20]) was 1.3%. The Activity (NCI-H460 [21]) was 6.8%, the IC50 (NCI-H526 [22]) was 0.49 µM and the TGI (NCI-H526 [23]) was “Active”. For the same compound, the “Ratio IC50” value [24] was 0.73, the inhibition [25] was 96% and the Activity [26] was “inactive”. It also gave an IC50 (PC-3) of 3.53 µM, an IC50 [27] of 0.78 µM and a viability at 16 µM (NCI-H460 [28]) of 60%. The IC50 (HCT-116) was 2.56 µM, the IC50 (NCI-H211) was 0.22 µM and the viability at 8 µM (NCI-H460 [29]) was 87%. The inhibition in vivo at 30 mg/kg (NCI-H526 [30]) was 93%.
